Measurements taken from US4379159A, “Antiinflammatory 2-substituted-thio-4,5-dihydro-4,5-diaryl-1H-imidazoles” (E. I. Du Pont de Nemours & Company, priority 1980, dated 1983).

Columns and labels:
[1] = test system: adjuvant-induced arthritis in rats; test: Established Adjuvant-Induced Arthritis in Rats; type: in vivo, rat (Lewis (Wistar) male rats); conditions: oral gavage once daily 7 days (days 14-20), paw volume on day 21; for ED50: Rattus norvegicus, ED50% for decrease from control paw volume, estimated by inspection of dose-response regression lines
arthritis = conditions: background statement; cited from earlier work
adjuvant arthritis = conditions: background statement; cited from earlier work

Cl.FC(F)(F)CSC1=NC(c2ccc(Cl)cc2)C(c2ccc(Cl)cc2)N1 (centres unmarked) [Example 3, 4,5-Bis(4-chlorophenyl)-4,5-dihydro-2-(2,2,2-trifluoroethylthio)-1H-imidazole Hydrochloride]
ED50 [1]: 25 mg/kg

CSC1=NC(c2ccc(Cl)cc2)C(c2ccc(Cl)cc2)N1.Cl (centres unmarked) [Example 1, 4,5-Bis(4-chlorophenyl)-4,5-dihydro-2-(methylthio)-1H-imidazole Hydrochloride]
ED50 [1]: 60 mg/kg

C=CCSC1=NC(c2ccc(Cl)cc2)C(c2ccc(Cl)cc2)N1.Cl (centres unmarked) [Example 2, 4,5-Bis(4-chlorophenyl)-4,5-dihydro-2-(allylthio)-1H-imidazole Hydrochloride]
percent reduction in paw volume at the indicated dose ([1]; at 25 mg/kg): 28%

c1ccc([C@H]2CN3CCSC3=N2)cc1 [Levamisole, 2,3,5,6-Tetrahydro-6-phenylimidazole-[2,1-b]thiazole]
clinical efficacy as an antiarthritic (arthritis): has shown clinical efficacy | activity in an adjuvant arthritis test (adjuvant arthritis): inactive
